Like-named read-outs stand apart in the source and are kept apart here.
Tests used:
HBV = test: Determination of HBV DNA from the supernatants of HepAD38 cells (anti-HBV activity); format: cell-based, hepatitis B virus; details: HBV DNA in HepAD38 supernatant at day 6, read-out: Cell Activity (EC50)
Summary of the method: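 HepAD38 cells (60,000/well) were treated with half-log compound dilutions in tetracycline-free medium to induce HBV production. On day 6, HBV DNA was purified from filtered supernatant and quantified by real-time PCR against plasmid standards. EC50 values came from non-linear regression of relative copy numbers, typically from three experiments in triplicate.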

HBV core protein = HBV core protein (UniProt P03146); format: biochemical
Chain of HBV core protein (P03146 whole entry, looked up): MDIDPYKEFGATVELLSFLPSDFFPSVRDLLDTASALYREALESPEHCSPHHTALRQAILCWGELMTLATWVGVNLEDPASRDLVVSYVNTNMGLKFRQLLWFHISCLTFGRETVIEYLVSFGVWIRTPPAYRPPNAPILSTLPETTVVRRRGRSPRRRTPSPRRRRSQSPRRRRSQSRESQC
Summary of the method: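 Fluorescence-quenching assembly assay using E. coli-expressed core protein 1–149 plus Cys150, labelled with BODIPY-FL maleimide, at 1.0–2.0 μM in 50 mM HEPES pH 7.5, 0.5% DMSO. Assembly started with NaCl to […]; fluorescence (ex 477/em 525 nm) read after 6 min. EC50 by non-linear regression, 8-point 0.5-log dilutions.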

HepAD38 cells = test: Cell viability assay (AlamarBlue) in HepAD38 cells; details: HepAD38 cells in the presence of 0.3 μg/ml tetracycline, six days incubation
[1] = BODIPY-FL labelled core protein, assembly started with NaCl, read after 6 min; read-out: Assembly Activity (IC50)

For O=C(c1cc2c(Cl)c(F)ccc2[nH]1)N1CCc2nc(N[C@H]3C[C@H](O)C3)sc2C1 [Example 355, (1r,3r)-3-{[5-(4-chloro-5-fluoro-1H-indole-2-carbonyl)-4H,5H,6H,7H-[1,3]thiazolo[5,4-c]pyridin-2-yl]amino}cyclobutan-1-ol], the EC50 (HBV) was less than 1 µM, the IC50 (HBV core protein; [1]) was less than 5 µM and the CC50 (HepAD38 cells) was greater than 10 µM.

With O=C(c1cc2c(Cl)cc(F)cc2[nH]1)N1CCc2nc(N[C@H]3C[C@H](O)C3)sc2C1 [Example 356, (1r,3r)-3-{[5-(4-chloro-6-fluoro-1H-indole-2-carbonyl)-4H,5H,6H,7H-[1,3]thiazolo[5,4-c]pyridin-2-yl]amino}cyclobutan-1-ol] the EC50 (HBV) was less than 1 µM, the IC50 (HBV core protein; [1]) was less than 5 µM and the CC50 (HepAD38 cells) was greater than 10 µM.

O=C(c1cc2ccc(Cl)cc2[nH]1)N1CCc2nc(N[C@H]3C[C@H](O)C3)sc2C1 [Example 357, (1r,3r)-3-{[5-(6-chloro-1H-indole-2-carbonyl)-4H,5H,6H,7H-[1,3]thiazolo[5,4-c]pyridin-2-yl]amino}cyclobutan-1-ol] was tested, and the EC50 (HBV) was less than 1 µM, the IC50 (HBV core protein; [1]) was less than 5 µM and the CC50 (HepAD38 cells) was greater than 10 µM.

In the case of O=C(Nc1nc2c(s1)CN(C(=O)c1cc3ccccc3[nH]1)CC2)C1[C@H]2COC[C@@H]12 (stereo partly drawn) [Example 358, (1R,5S,6R)—N-[5-(1H-indole-2-carbonyl)-4H,5H,6H,7H-[1,3]thiazolo[5,4-c]pyridin-2-yl]-3-oxabicyclo[3.1.0]hexane-6-carboxamide], the EC50 (HBV) is reported as less than 1 µM, the IC50 (HBV core protein; [1]) is reported as less than 5 µM and the CC50 (HepAD38 cells) is reported as greater than 10 µM.

With O=C(Nc1nc2c(s1)CN(C(=O)c1cc3ccccc3[nH]1)CC2)C1[C@H]2CNC[C@@H]12 (stereo partly drawn) [Example 359, (1R,5S,6R)—N-[5-(1H-indole-2-carbonyl)-4H,5H,6H,7H-[1,3]thiazolo[5,4-c]pyridin-2-yl]-3-azabicyclo[3.1.0]hexane-6-carboxamide] the EC50 (HBV) was less than 1 µM, the IC50 (HBV core protein; [1]) was less than 5 µM and the CC50 (HepAD38 cells) was greater than 10 µM.

In the case of O=C(Nc1nc2c(s1)CN(C(=O)c1cc3ccccc3[nH]1)CC2)C1[C@H]2CNC[C@@H]12 (stereo partly drawn) [Example 360, (1R,5S,6S)—N-[5-(1H-indole-2-carbonyl)-4H,5H,6H,7H-[1,3]thiazolo[5,4-c]pyridin-2-yl]-3-azabicyclo[3.1.0]hexane-6-carboxamide], the EC50 (HBV) is reported as less than 1 µM, the IC50 (HBV core protein; [1]) is reported as less than 5 µM and the CC50 (HepAD38 cells) is reported as greater than 10 µM.

O=C(Nc1nc2c(s1)CN(C(=O)c1cc3ccccc3[nH]1)CC2)C1[C@H]2COC[C@@H]12 (stereo partly drawn) [Example 361, (1R,5S,6S)—N-[5-(1H-indole-2-carbonyl)-4H,5H,6H,7H-[1,3]thiazolo[5,4-c]pyridin-2-yl]-3-oxabicyclo[3.1.0]hexane-6-carboxamide] gave an EC50 (HBV) of less than 1 µM and a CC50 (HepAD38 cells) greater than 10 µM.

Work on CCc1cc(F)cc2[nH]c(C(=O)N3CCc4nc(N[C@H]5C[C@H](O)C5)sc4C3)cc12 [Example 376, (1r,3r)-3-{[5-(4-ethyl-6-fluoro-1H-indole-2-carbonyl)-4H,5H,6H,7H-[1,3]thiazolo[5,4-c]pyridin-2-yl]amino}cyclobutan-1-ol] yielded an EC50 (HBV) of less than 1 µM and a CC50 (HepAD38 cells) greater than 10 µM.

O=C(c1cc2c(F)c(F)ccc2[nH]1)N1CCc2nc(N[C@H]3C[C@H](O)C3)sc2C1 [Example 377, (1r,3r)-3-{[5-(4,5-difluoro-1H-indole-2-carbonyl)-4H,5H,6H,7H-[1,3]thiazolo[5,4-c]pyridin-2-yl]amino}cyclobutan-1-ol] gave an EC50 (HBV) of less than 1 µM and a CC50 (HepAD38 cells) greater than 10 µM.

In the case of O=C(c1cc2c(F)cc(F)cc2[nH]1)N1CCc2nc(N[C@H]3C[C@H](O)C3)sc2C1 [Example 378, (1r,3r)-3-{[5-(4,6-difluoro-1H-indole-2-carbonyl)-4H,5H,6H,7H-[1,3]thiazolo[5,4-c]pyridin-2-yl]amino}cyclobutan-1-ol], the EC50 (HBV) is reported as less than 1 µM and the CC50 (HepAD38 cells) is reported as greater than 10 µM.

Work on Cc1cc(F)cc2[nH]c(C(=O)N3CCc4nc(N[C@H]5C[C@H](O)C5)sc4C3)cc12 [Example 379, (1r,3r)-3-{[5-(6-fluoro-4-methyl-1H-indole-2-carbonyl)-4H,5H,6H,7H-[1,3]thiazolo[5,4-c]pyridin-2-yl]amino}cyclobutan-1-ol] yielded an EC50 (HBV) of less than 1 µM and a CC50 (HepAD38 cells) greater than 10 µM.

For CCc1cccc2[nH]c(C(=O)N3CCc4nc(N[C@H]5C[C@H](O)C5)sc4C3)cc12 [Example 380, (1r,3r)-3-{[5-(4-ethyl-1H-indole-2-carbonyl)-4H,5H,6H,7H-[1,3]thiazolo[5,4-c]pyridin-2-yl]amino}cyclobutan-1-ol], the EC50 (HBV) was less than 1 µM and the CC50 (HepAD38 cells) was greater than 10 µM.

For O=C(c1cc2c(Cl)cccc2[nH]1)N1CCc2nc(N[C@H]3C[C@H](O)C3)sc2C1 [Example 381, (1r,3r)-3-{[5-(4-chloro-1H-indole-2-carbonyl)-4H,5H,6H,7H-[1,3]thiazolo[5,4-c]pyridin-2-yl]amino}cyclobutan-1-ol], the EC50 (HBV) was less than 1 µM and the CC50 (HepAD38 cells) was greater than 10 µM.

O=C(c1cc2ccccc2[nH]1)N1CCc2nc(N[C@H]3C[C@@H](O)C3)sc2C1 [Example 388, (1s,3s)-3-{[5-(1H-indole-2-carbonyl)-4H,5H,6H,7H-[1,3]thiazolo[5,4-c]pyridin-2-yl]amino}cyclobutan-1-ol] gave an EC50 (HBV) of less than 1 µM and a CC50 (HepAD38 cells) greater than 10 µM.

O=C(c1cc2c(F)c(F)ccc2[nH]1)N1CCc2nc(N[C@H]3CC[C@@H](O)CC3)sc2C1 [Example 395, (1s,4s)-4-{[5-(4,5-difluoro-1H-indole-2-carbonyl)-4H,5H,6H,7H-[1,3]thiazolo[5,4-c]pyridin-2-yl]amino}cyclohexan-1-ol] showed an EC50 (HBV) of less than 1 µM, an IC50 (HBV core protein; [1]) of less than 5 µM and a CC50 (HepAD38 cells) greater than 10 µM.

For O=C(c1cc2ccccc2[nH]1)N1CCc2nc(N[C@H]3C[C@H](O)C3)sc2C1 [Example 397, (1r,3r)-3-{[5-(1H-indole-2-carbonyl)-4H,5H,6H,7H-[1,3]thiazolo[5,4-c]pyridin-2-yl]amino}cyclobutan-1-ol], the EC50 (HBV) was less than 1 µM, the IC50 (HBV core protein; [1]) was less than 5 µM and the CC50 (HepAD38 cells) was greater than 10 µM.

For CN(C)C1(CNc2nc3c(s2)CN(C(=O)c2cc4ccccc4[nH]2)CC3)CCC1 [Example 433, N-{[1-(dimethylamino)cyclobutyl]methyl}-5-(1H-indole-2-carbonyl)-4H,5H,6H,7H-[1,3]thiazolo[5,4-c]pyridin-2-amine], the EC50 (HBV; Hepatitis B virus, 144 h) was less than 1 µM and the IC50 (HBV core protein; read-out: Assembly Activity (IC50); BODIPY-FL labelled core protein, assembly started with NaCl, read after 6 min) was less than 5 µM.

“(2S)-2-amino-3-{[5-(1H-indole-2-carbonyl)-4H,5H,6H,7H-[1,3]thiazolo[5,4-c]pyridin-2-yl]carbamoyl}propanoic acid [Example 444]” gave an EC50 (HBV) of less than 1 µM, an IC50 (HBV core protein; [1]) of 5 to 10 µM and a CC50 (HepAD38 cells) greater than 10 µM.

“(2S)-2-amino-4-{[5-(1H-indole-2-carbonyl)-4H,5H,6H,7H-[1,3]thiazolo[5,4-c]pyridin-2-yl]carbamoyl}butanoic acid [Example 354]” gave an EC50 (HBV) of less than 1 µM, an IC50 (HBV core protein; [1]) of less than 5 µM and a CC50 (HepAD38 cells) greater than 10 µM.

“N-[5-(1H-indole-2-carbonyl)-4H,5H,6H,7H-[1,3]thiazolo[5,4-c]pyridin-2-yl]piperidine-4-carboxamide hydrochloride [Example 385]” was tested, and the EC50 (HBV) was less than 1 µM and the CC50 (HepAD38 cells) was greater than 10 µM.

For “tert-butyl 3-{[5-(1H-indole-2-carbonyl)-4H,5H,6H,7H-[1,3]thiazolo[5,4-c]pyridin-2-yl]carbamoyl}azetidine-1-carboxylate [Example 387]”, the EC50 (HBV) was less than 1 µM and the CC50 (HepAD38 cells) was greater than 10 µM.

In the case of “tert-butyl 4-{[5-(1H-indole-2-carbonyl)-4H,5H,6H,7H-[1,3]thiazolo[5,4-c]pyridin-2-yl]carbamoyl}piperidine-1-carboxylate [Example 384]”, the EC50 (HBV) is reported as less than 1 µM and the CC50 (HepAD38 cells) is reported as greater than 10 µM.
